Where two headings read alike, the source gives them in different places.
What was measured:
murine Abcg2 [1] = system: T1, murine Abcg2; experiment: Tissue distribution in wild-type and Abcg2−/− male mice; format: in vivo; settings: FVB/N, mouse, sc, wild-type male mice, 10 mg/kg s.c.
T1 construct: from tissue; host or cells: whole animal: wild-type vs Abcg2-/- mice, >99% FVB/N background
Procedure: (§1) All in vivo experiments were carried out using wild-type and Abcg2^−/− mice aged between 8 and 17 weeks, all of >99% FVB/N genetic background, generated and gently supplied by A. H. Schinkel (Netherlands Cancer Institute). Mice were housed and handled complying with institutional and ARRIVE guidelines and European legislation (EU Directive 2010/63/EU for animal experiments). Additionally, experimental procedures were approved by the Animal Care and Use Committee of the University of León and the Junta de Castilla y León (ULE_011_2019).
(§2) For pharmacokinetic experiments, a single dose of nitroxynil at 10 mg/kg was administered subcutaneously to wild-type and Abcg2^−/− male mice (n = 4–5, for each time point). Distomicide® (250 mg/mL) commercial solution was dissolved in saline (sodium chloride 0.9%) and dosed at 200 μL per 30 g body weight. Blood samples were collected at different time points (0.5, 3, 4.5, 6, 24, 48 and 96 h) and heparinized blood samples were centrifugated for 15 min at 3000× g. Organs were also collected at 24 and 96 h after euthanasia. Linear trapezoidal rule was used to calculate the area under the plasma concentration–time curve (AUC) parameter.
(§3) Plasma, milk and tissue samples from each animal were individually processed and analyzed without pooling, while samples from transport assays were not processed. Tissue samples were homogenized in a mixture of 50% water/50% methanol HCl 0.5% (v/v); 1 mL solution per 0.1 g tissue. The entire amount of collected milk (74.7–295.1 mg) and 100 μL plasma and tissue homogenates were processed. To each sample, 10 μL of a nitrofurantoin solution (10 μg/mL for plasma and milk and 2 μg/mL for homogenized tissues) was added as an internal standard and 150 μL acetonitrile was used to precipitate the proteins. The mixture was vortexed horizontally for 15 min and centrifugated at 10,000× g for 5 min at 4 °C. Supernatant was transferred to a new tube and dried at 40 °C under N2 stream. Samples were reconstituted in 100 μL of mobile phase and 50 μL was injected into HPLC. Standards were subjected to the same procedures as samples.
(§4) Waters 2695 separation module and Waters 2998 UV photodiode array detector set at 270 nm were used for samples analysis. Chromatographic conditions for nitroxynil detection were based on previously described methods, with minor modifications. Chromatographic separation was achieved on a reverse-phase column (Synergy 4 μm Hydro–RP 80 Å, 250 × 4.60 mm; Phenomenex®, Torrance, CA, USA) using an isocratic binary mobile phase consisting of 25 mM potassium phosphate monobasic (KH2PO4), pH 4: acetonitrile (70:30 for culture samples and 80:20 for animal samples) at a flow rate of 1 mL/min. Autosampler and column temperature were 4 °C and 40 °C, respectively. Limit of detection (LOD) and quantification (LOQ) were calculated as previously described. For cell culture samples, LOD and LOQ were 0.003 μg/mL and 0.007 μg/mL, respectively. For in vivo samples, LOD was in the range of 0.01–0.07 μg/mL and LOQ in the range of 0.03–0.15 μg/mL.

murine Abcg2 [2] = experiment: as above; format: in vivo; settings: 10 mg/kg s.c.
Procedure: as §1, §2, §3, §4

[3] = design: method as in PMID 21657788; settings: cited from earlier work
[4] = design: method as in PMID 7180778; settings: cited from earlier work
ovine ABCG2 = experiment: Transepithelial transport assay in MDCK-II cells transduced with ovine ABCG2; format: in vitro ADME; settings: sheep, MDCK-II oABCG2, nitroxynil 10 µM, no Ko143, read-out: Relative efflux transport ratio (BA/AB)
Procedure: Parental Madin–Darby canine kidney epithelial cells (MDCK–II) and their subclones transduced with murine (mAbcg2) and human (hABCG2) variants of ABCG2 were kindly provided by Dr. A. H. Schinkel (Netherlands Cancer Institute). Transduced MDCK–II cells with the ovine (oABCG2) and bovine (bABCG2) variants were previously generated by our group. Cells were cultured as described elsewhere.
Transepithelial transport assays were carried out as previously described with minor variations, using Hanks’ balanced salt solution (Sigma-Aldrich) supplemented with HEPES (25 mM), with or without Ko143 (1 μM), and containing or not nitroxynil 10 μM. […] At the end of the experiment, confluence of the monolayer was measured with the previously described Lucifer Yellow permeability test, with minor modifications. The appearance of nitroxynil in the opposite side of the well was measured by HPLC as later described. Active transport was expressed as relative efflux transport ratio (apically directed transport percentage divided by the basolaterally directed translocation percentage) at 4 h and referred to the initial concentration. […]
Waters 2695 separation module and Waters 2998 UV photodiode array detector set at 270 nm were used for samples analysis. […] Limit of detection (LOD) and quantification (LOQ) were calculated as previously described. […]

N#Cc1cc(I)c(O)c([N+](=O)[O-])c1 [nitroxynil]
Kp at 96 h (murine Abcg2 [1]; kidney and plasma, 96 h, read-out: Tissue/plasma ratio, kidney): 0.06 ± 0.01 | concentration at 24 h (murine Abcg2 [1]; kidney, read-out: Tissue concentration, kidney): 5900 ± 1200 ng/g | concentration at 96 h (murine Abcg2 [1]; kidney, 96 h): 900 ± 100 ng/g | concentration at 24 h (murine Abcg2 [1]; liver, read-out: Tissue concentration, liver): 900 ± 300 ng/g | concentration at 24 h (murine Abcg2 [1]; small intestine, read-out: Levels of nitroxynil in small intestine): 1100 ± 200 ng/mL | concentration at 24 h (murine Abcg2 [1]; small intestine, read-out: Tissue concentration, small intestine): 1100 ± 200 ng/g | concentration at 24 h (murine Abcg2 [1]; spleen, read-out: Accumulation in spleen): 1400 ± 300 ng/mL | concentration at 24 h (murine Abcg2 [1]; spleen, read-out: Tissue concentration, spleen): 1400 ± 300 ng/g | concentration at 24 h (murine Abcg2 [1]; testis, read-out: Concentration in testis): 2600 ± 200 ng/mL | concentration at 24 h (murine Abcg2 [1]; testis, read-out: Tissue concentration, testis): 2600 ± 200 ng/g | Tissue concentration, spleen (murine Abcg2 [2]; Abcg2−/− male mice, 96 h): <LOQ | Kp at 96 h (murine Abcg2 [2]; FVB/N, mouse, kidney and plasma, sc, Abcg2−/− male mice, 96 h, read-out: Tissue/plasma ratio, kidney): 0.03 ± 0.01 | concentration at 24 h (murine Abcg2 [2]; FVB/N, mouse, kidney, sc, Abcg2−/− male mice, read-out: Tissue concentration, kidney): 8200 ± 1800 ng/g | concentration at 96 h (murine Abcg2 [2]; FVB/N, mouse, kidney, sc, Abcg2−/− male mice, 96 h, read-out: Tissue concentration, kidney): 3500 ± 300 ng/g | concentration at 24 h (murine Abcg2 [2]; FVB/N, mouse, liver, sc, Abcg2−/− male mice, read-out: Tissue concentration, liver): 1300 ± 300 ng/g | concentration at 96 h (murine Abcg2 [2]; FVB/N, mouse, liver, sc, Abcg2−/− male mice, 96 h, read-out: Tissue concentration, liver): 700 ± 200 ng/g | concentration at 24 h (murine Abcg2 [2]; FVB/N, mouse, small intestine, sc, Abcg2−/− male mice, read-out: Levels of nitroxynil in small intestine): 1600 ± 300 ng/mL | concentration at 24 h (murine Abcg2 [2]; FVB/N, mouse, small intestine, sc, Abcg2−/− male mice, read-out: Tissue concentration, small intestine): 1600 ± 300 ng/g | concentration at 96 h (murine Abcg2 [2]; FVB/N, mouse, small intestine, sc, Abcg2−/− male mice, 96 h, read-out: Tissue concentration, small intestine): 500 ± 100 ng/g | concentration at 24 h (murine Abcg2 [2]; FVB/N, mouse, spleen, sc, Abcg2−/− male mice, read-out: Accumulation in spleen): 2500 ± 300 ng/mL | concentration at 24 h (murine Abcg2 [2]; FVB/N, mouse, spleen, sc, Abcg2−/− male mice, read-out: Tissue concentration, spleen): 2500 ± 300 ng/g | concentration at 24 h (murine Abcg2 [2]; FVB/N, mouse, testis, sc, Abcg2−/− male mice, read-out: Concentration in testis): 4200 ± 800 ng/mL | concentration at 24 h (murine Abcg2 [2]; FVB/N, mouse, testis, sc, Abcg2−/− male mice, read-out: Tissue concentration, testis): 4200 ± 800 ng/g | concentration at 96 h (murine Abcg2 [2]; FVB/N, mouse, testis, sc, Abcg2−/− male mice, 96 h, read-out: Tissue concentration, testis): 1100 ± 200 ng/g | Brain levels (murine Abcg2 [2]; wild-type and Abcg2−/− male mice, 24 and 96 h, almost all samples): below LOQ | Time after treatment at which residues have been found in milk [3]: up to 58 days | Time after treatment at which residues have been found in tissues [4]: ≤ 90 days | efflux ratio at 4 h, 10 µM (ovine ABCG2): 27.4 ± 5.32
